Here are results for 4 substances from paper PMC6899342 (PeerJ, 2019).

Where no end group is shown, it is not given here.

For this test, the target named is T1, PCV2 Cap protein (Porcine circovirus 2, UniProt O56129).
T1 construct: made in house; host or cells: E. coli BL21 (pET28a-Cap)
The experiment in a line: biochemical. To be noted: for kon: pH 7.4, read-out: ka. Type of test: binding, porcine circovirus type II. The procedure:
The equilibrium binding constant (KD) of peptides was determined using an Open SPR instrument (Nicoya, Canada). First, purified Cap protein was covalently immobilized on a carboxyl Au colloidal nanoparticles chip. […] Then, all peptides were respectively dissolved in PBS at predetermined concentrations and injected to detect the resonance signal changes. In each cycle, 300 µL of peptide solution was injected into the flow cell of the Cap chip for 5 min. Finally, the data were assessed to determine the association constant (ka, 1/Ms), the dissociation constant (kd, 1/s), the equilibrium binding constant (KD, M), and KD = kd/ka via Trace Drawer 1.7 (Nicoya, Canada).
All the steps were performed according to manufacturer’s instructions. First, the activation of carboxyl chip: the chip is activated by the EDC/NHS reagent in the amine coupling kit. […] The last step is to block the chip with blocking buffer. In every step, The 300 μL sample was flowed through the chip for 5 min at a constant flow rate of 20 μL/min.
Dissociation constant Kd represents the ratio of AB (ie, AB) dissociated in unit time to the initial AB before dissociation, which represents the speed of the dissociation reaction.Equilibrium dissociation constant KD =kd/ka, KD unit is M (mol/L)
1:1 binding interaction model represents the binding mode of ligand and target according to 1:1. The1:1 binding interaction model is a differential equation:
dY/dt = (k a * c - k d )* Y

T1 sequence (O56129 whole entry): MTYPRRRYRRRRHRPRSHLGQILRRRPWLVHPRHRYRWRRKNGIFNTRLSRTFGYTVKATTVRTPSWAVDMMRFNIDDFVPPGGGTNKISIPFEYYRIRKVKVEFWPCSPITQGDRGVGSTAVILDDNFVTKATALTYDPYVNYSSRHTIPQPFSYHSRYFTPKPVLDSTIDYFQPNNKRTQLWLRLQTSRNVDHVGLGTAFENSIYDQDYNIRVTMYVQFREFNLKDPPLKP

In the case of RKHKRWK [Peptide L7], the Kd was 1.06 µM and the kon came out at 856 M⁻¹ s⁻¹.
On the same counts, the results for WQSWEWTG [Peptide L9] are 6.71 µM and 855 M⁻¹ s⁻¹.
Regarding KWWQSWEW [Peptide L13], the Kd was 9.97 µM and the kon is 335 M⁻¹ s⁻¹.
For the substance WQGMMKEE [Peptide L4], binding was put at a Kd of 1.23 µM and the kon came to 1920 M⁻¹ s⁻¹.
